Test results taken from patent publication US20250230226A1, “PLXDC1/PLXDC2 ACTIVATORS AND THEIR USE IN THE TREATMENT OF BLOOD VESSEL DISORDERS” (THE REGENTS OF THE UNIVERSITY OF CALIFORNIA, priority 2019, published 2025).

Test system: LL/2 lung cancer tumor endothelial cells
Test: Lung LL2 ex vivo model of tumor angiogenesis
Format: cell-based, mouse
Conditions: for 48 hrs (morphology observations): LL/2 tumor endothelial cells; for Cell death: drug treatment for two days, ratio of red area to total endothelial cell area; for cytotoxicity at 40 µM: Mus musculus, Endothelial cell, 48 h, read-out: Cell death
Protocol: An ex vivo tumor angiogenesis model was developed to test the efficacy of anti-cancer candidate agents. The following protocol describes the Ex Vivo Tumor Angiogenesis Model.
• 1. The day before the experiment, all necessary tools were sprayed with 70% ethanol and sterilized under UV light overnight, including blade, dissecting and micro-dissecting scissors and […]. 24-well dishes were placed at 4° C. to pre-chill plates and Matrigel was thawed, 24 hours before tumor dissection. • 2. 70% ethanol was sprayed on working bench. Two sterile petri dishes were prepared with 10 ml sterile PBS. The following steps 3 and 4 are necessary for mouse tumor models. For fresh human tumor, steps 3 and 4 are skipped. • 3. The tumor-bearing mice were euthanized. 70% ethanol was sprayed on the mouse and the tumor was removed using sterilized dissecting tools (avoid the fur). The tumor was rinsed in petri dish with sterile PBS to remove ethanol and fur. The tumor was transferred to a new petri dish with PBS for dissection. The dish is placed on ice. • 4. Pre-chilled sterile pipet tips were used to seed regular Matrigel in 24 well plates on ice. Matrigel (30 μl) was dropped in the middle of each well without touching the edge of the well (avoid introducing bubbles if possible). • 5. The tumor was cut in halves using the sterile blade. Healthy tumor tissue that is not necrotic and is within the tumor capsule was identified and isolated. The healthy tumor tissue was cut into small pieces. For instance, a suitable size for the tumor tissue is 0.5 mm (H)×0.5 mm (L)×0.3 mm (D) with a total volume of 0.075 mm^3. • 6. Each tumor piece was gently transferred and embedded in the Matrigel drop in the 24-well plate. The embedded piece was placed in the bottom and middle of each Matrigel drop. The plate was kept on ice all the time. • 7. After seeding the tumor pieces, plates were incubated in a 37° C. cell culture incubator without medium for 10 minutes in order for the Matrigel to solidify. • 8. Endothelial Growth Medium (0.5 ml) was added to each well and incubated at 37° C. with 5% CO2. Treatment was not added until the new endothelial cells was grown out of the tumor or were larger than 3 mm in diameter. This usually takes 4 days for the LL2 Lewis lung cancer model and 7 days for the CT26 colon cancer model. For human tumor models, the growth time is typically 2-3 weeks, depending on the tumor type. Media was changed every 4 days during prolonged culture. Typically, when the tumor tissue grows to 2 mm in diameter, it was good for drug testing. A size of about 3 mm in diameter can make visualization easier. • 9. When the assay was ready to be analyzed for cell death (e.g., 48 hours after drug addition), the dye mixture was prepared by mixing 6 μl of green dye to stain live cells (5 mg/ml Fluorescein diacetate or FDA in DMSO) with 30 μl of red dye (2.5 mg/ml Propidium iodide or PI in PBS) to stain dead cells in an Eppendorf tube. The FDA dye needs to be stored frozen in a −20° C. freezer because it has a labile ester bond. • 10. 1 μl of the dye mixture was added to each well of the 24-well dish. It is usually preferred to do one 24-well dish at a time given the amount of time needed to take pictures (the green dye is not as stable in the cells in the long term). • 11. The dish was gently rocked a few times to mix the dye with the media in the wells and incubate the dish at 37° C. for 10 min (too long incubation can make the green signal too intense). • 12. Each well was washed with 0.5 ml of sterile PBS and then 0.5 ml of phenol red free SFM was added to each well. Alternatively 0.5 ml of regular Endothelial Cell Growth Media can be added to each well if this well needs to be continuously maintained after the experiment. • 13. An inverted microscope using the 2× objective lens was used to observe morphological changes in the experimental wells. • 14. […]

| Structure (SMILES) | 48 hrs (morphology observations) (40 μm) | Cell death (40 μm) [%] | 48 hrs (morphology observations) (10 μm) | Cell death (10 μm) [%] | cytotoxicity at 40 µM [%] |
| --- | --- | --- | --- | --- | --- |
| CCCCOc1ccc(S(=O)(=O)c2cnc3ccc(C(=O)OCC)cc3c2N2CCCN(CCN3CCCCC3)CC2)cc1 [Compound 181] | **** (100% of endothelial cells vesicularize in cell shape and look flattened in morphology (indicating disintegration of the cell body)) | 100 |  |  |  |
| CCCCOc1ccc(S(=O)(=O)c2cnc3ccc(C(=O)OCC)cc3c2N2CCCN(CCN3CCCC3)CC2)cc1 [Compound 182] | **** (100% of endothelial cells vesicularize in cell shape and look flattened in morphology (indicating disintegration of the cell body)) | 100 |  |  |  |
| CCOC(=O)c1ccc2ncc(S(=O)(=O)c3ccc(OC)cc3)c(-n3cncn3)c2c1 [Compound 183] |  |  | **** (100% of endothelial cells vesicularize in cell shape and look flattened in morphology (indicating disintegration of the cell body)) | 100 |  |
| CCOC(=O)c1ccc2ncc(S(=O)(=O)c3ccc(OC)cc3)c(-n3ccnn3)c2c1 [Compound 184] |  |  | 0 | 5 |  |
| CCOC(=O)c1ccc2ncc(S(=O)(=O)c3ccc(OC)cc3)c(-n3cnnn3)c2c1 [Compound 185] |  |  | * (50% or less of cells vesicularize in cell shape) | 30 |  |
| CCCCOc1ccc(S(=O)(=O)c2cnc3ccc(C(=O)OCC)cc3c2-n2cnnn2)cc1 [Compound 186] |  |  | **** (100% of endothelial cells vesicularize in cell shape and look flattened in morphology (indicating disintegration of the cell body)) | 90 |  |
| CCCCOc1ccc(S(=O)(=O)c2cnc3ccc(OC(F)(F)F)cc3c2N2CCSCC2)cc1 [Compound 187] | 0 | 30 |  |  |  |
| CCCCOc1ccc(S(=O)(=O)c2cnc3ccc(C(=O)NC4C(O)O[C@H](CO)[C@@H](O)[C@@H]4O)cc3c2N2CCCN(C)CC2)cc1 (stereo partly shown) [Compound 193] | 0 |  |  |  | 30 |
| CCCCOc1ccc(S(=O)(=O)c2cnc3ccc(C(=O)OCC)cc3c2N2CC[S+]([O-])CC2)cc1 [Compound 195] | 0 |  |  |  |  |
| CCCCOc1ccc(S(=O)(=O)c2cnc3ccc(C(=O)OCC)cc3c2N2CCS(=O)(=O)CC2)cc1 [Compound 196] | 0 | 30 |  |  |  |
| CCCCOc1ccc(S(=O)(=O)c2cnc3ccc(OC(F)(F)F)cc3c2N2CC[S+]([O-])CC2)cc1 [Compound 197] | 0 | 20 |  |  |  |
| CCCCOc1ccc(S(=O)(=O)c2cnc3ccc(OC(F)(F)F)cc3c2N2CCS(=O)(=O)CC2)cc1 [Compound 198] | 0 | 30 |  |  |  |
| CCCCOc1ccc(S(=O)(=O)c2cnc3ccc(C(=O)N(CC)CC)cc3c2N2CCCN(C)CC2)cc1 [Compound 199] | 0 | 30 |  |  |  |
| CCCCOc1ccc(S(=O)(=O)c2cnc3ccc(C(=O)NCCO)cc3c2N2CCCN(C)CC2)cc1 [Compound 200] | 0 |  |  |  | 30 |
| CCCCOc1ccc(S(=O)(=O)c2cnc3ccc(C(=O)OCC)cc3c2N2CCN(c3ccc(F)cc3)CC2)cc1 [Compound 213] | 0 |  |  |  | 30 |
| CCCCOc1ccc(S(=O)(=O)c2cnc3ccc(C(=O)OCC)cc3c2N2CCC(N3CCSCC3)CC2)cc1 [Compound 217] | 0 | 30 |  |  |  |
| CCCCCCCOc1ccc(S(=O)(=O)c2cnc3ccc(SC)cc3c2N2CCC(N3CCC(O)CC3)CC2)cc1 [Compound 223] | *** (more than 50% but less than 100% of endothelial cells vesicularize in cell shape) |  |  |  | 30 |

| Structure (SMILES) | 48 hrs (morphology observations) (40 μm) | Cell death (40 μm) [%] | 48 hrs (morphology observations) (10 μm) | Cell death (10 μm) [%] | cytotoxicity at 40 µM [%] |
| --- | --- | --- | --- | --- | --- |
| CCOC(=O)c1ccc2ncc(S(=O)(=O)c3ccc(OC)cc3)c(NN3CCN(C)CC3)c2c1 [Compound 225] | 0 | 40 |  |  |  |
| COc1ccc(S(=O)(=O)c2cnc3ccc(SC)cc3c2NN2CCN(C)CC2)cc1 [Compound 226] | * (50% or less of cells vesicularize in cell shape) | 10 |  |  |  |
| COc1ccc(S(=O)(=O)c2cnc3ccc([S+](C)[O-])cc3c2NN2CCN(C)CC2)cc1 (stereo not shown) [Compound 227] | 0 | 10 |  |  |  |
| COc1ccc(S(=O)(=O)c2cnc3ccc(S(C)(=O)=O)cc3c2NN2CCN(C)CC2)cc1 [Compound 228] | 0 | 5 |  |  |  |
| CCCCOc1ccc(S(=O)(=O)c2cnc3ccc(SC)cc3c2N2CCC(N3CCOCC3)CC2)cc1 [Compound 229] | 0 | 30 |  |  |  |
| CCCCOc1ccc(S(=O)(=O)c2cnc3ccc(SC)cc3c2N2CCC(N3CCN(CCO)CC3)CC2)cc1 [Compound 230] | *** (more than 50% but less than 100% of endothelial cells vesicularize in cell shape) |  |  |  | 100 |
| CCCCOc1ccc(S(=O)(=O)c2cnc3ccc(SC)cc3c2N2CCC(N3CCC(N4CCCCC4)CC3)CC2)cc1 [Compound 231] | *** (more than 50% but less than 100% of endothelial cells vesicularize in cell shape) | 100 |  |  |  |
| CCCCOc1ccc(S(=O)(=O)c2cnc3ccc(SC)cc3c2N2CCC(N3CCC(O)(c4ccccc4)CC3)CC2)cc1 [Compound 232] | 0 | 10 |  |  |  |
| CCCCOc1ccc(S(=O)(=O)c2cnc3ccc(SC)cc3c2N2CCC(N3CCN(c4ccc(F)cc4)CC3)CC2)cc1 [Compound 233] | 0 | 5 |  |  |  |
| CCCCOc1ccc(S(=O)(=O)c2cnc3ccc(SC)cc3c2N2CCC(N3CCCN(C)CC3)CC2)cc1 [Compound 234] | *** (more than 50% but less than 100% of endothelial cells vesicularize in cell shape) | 100 |  |  |  |
| CCCCOc1ccc(S(=O)(=O)c2cnc3ccc([S+](C)[O-])cc3c2N2CCC(N3CCOCC3)CC2)cc1 (stereo not shown) [Compound 235] | 0 | 10 |  |  |  |
| CCCCOc1ccc(S(=O)(=O)c2cnc3ccc([S+](C)[O-])cc3c2N2CCC(N3CCN(CCO)CC3)CC2)cc1 (stereo not shown) [Compound 236] | 0 | 5 |  |  |  |
| CCCCOc1ccc(S(=O)(=O)c2cnc3ccc([S+](C)[O-])cc3c2N2CCC(N3CCC(N4CCCCC4)CC3)CC2)cc1 (stereo not shown) [Compound 237] | *** (more than 50% but less than 100% of endothelial cells vesicularize in cell shape) | 100 |  |  |  |
| CCCCOc1ccc(S(=O)(=O)c2cnc3ccc([S+](C)[O-])cc3c2N2CCC(N3CCN(c4ccc(F)cc4)CC3)CC2)cc1 (stereo not shown) [Compound 239] | 0 | 40 |  |  |  |
| CCCCOc1ccc(S(=O)(=O)c2cnc3ccc([S+](C)[O-])cc3c2N2CCC(N3CCC(CO)CC3)CC2)cc1 (stereo not shown) [Compound 240] | 0 | 30 |  |  |  |
| CCN(CC)CCOc1ccc(S(=O)(=O)c2cnc3ccc(SC)cc3c2N2CCCN(C)CC2)cc1 [Compound 242] | 0 | 30 |  |  |  |
| CCCCOc1ccc(S(=O)(=O)c2cnc3ccc(SC)cc3c2N2CCC(N3CCSCC3)CC2)cc1 [Compound 243] | 0 | 20 |  |  |  |
